Source: paper PMC11971462, “Generation and validation of a novel multitarget small molecule in glioblastoma” (Cell Death & Disease, 2025)
Like-named read-outs stand apart in the source and are kept apart here.

Test system: GNS166 cells

SMILES: C#CCN(Cc1cc2cc(OCCCN3CCCCC3)ccc2n1S(=O)(=O)c1ccccc1)C(=O)CCCCCCC(=O)NO [DDI]
- PCBP3 log2FoldChange: 5.457
- PCDH15 log2FoldChange: 3.424
- PCDH19 log2FoldChange: 2.11
- PCDHA13 log2FoldChange: 3.483
- PCOLCE2 log2FoldChange: 2.03
- PCP4L1 log2FoldChange: 4.897
- PCSK1 log2FoldChange: 3.118
- PDE2A log2FoldChange: 2.038
- PDE3A log2FoldChange: 2.332
- PDE4C log2FoldChange: 2.296
- PDK4 log2FoldChange: 2.588
- PDX1 log2FoldChange: 3.554
- PLA2G4A log2FoldChange: 2.126
- PLCXD2 log2FoldChange: 2.533
- PLEK2 log2FoldChange: 2.459
- PLEKHA6 log2FoldChange: 2.086
- PLP1 log2FoldChange: 2.506
- PPM1N log2FoldChange: 2.335
- PPP1R1B log2FoldChange: 4.39
- PPP1R16B log2FoldChange: 3.376
- PPP4R4 log2FoldChange: 3.111
- PRR29 log2FoldChange: 3.599
- PRRX2 log2FoldChange: 2.314
- PRSS3 log2FoldChange: 3.932
- PSD2 log2FoldChange: 3.562
- PSG1 log2FoldChange: 5.24
- PSG4 log2FoldChange: 4.564
- PSG5 log2FoldChange: 4.838
- PSG9 log2FoldChange: 3.658
- PTGS1 log2FoldChange: 4.0843
- PTPN5 log2FoldChange: 4.236
- PTPRO log2FoldChange: 3.032
- PTPRQ log2FoldChange: 3.237
- QPRT log2FoldChange: 2.003
- RAB39A log2FoldChange: 2.508
- RADX log2FoldChange: 2.3792
- RAET1G log2FoldChange: 2.196
- RAP1GAP log2FoldChange: 2.521
- RARB log2FoldChange: 2.002
- RASD2 log2FoldChange: 3.718
- RASIP1 log2FoldChange: 2.128
- RDH12 log2FoldChange: 3.657
- REM1 log2FoldChange: 2.662
- RFPL4A log2FoldChange: 5.081
- RFTN2 log2FoldChange: 4.233
- RGS9 log2FoldChange: 5.175
- RIMBP2 log2FoldChange: 6.452
- RIMS4 log2FoldChange: 5.004
- RNF165 log2FoldChange: 3.79
- RUNDC3A log2FoldChange: 4.619
- S100B log2FoldChange: 3.045
- SAMD11 log2FoldChange: 4.391
- SCEL log2FoldChange: 2.003
- SCIN log2FoldChange: 3.412
- SCN3A log2FoldChange: 2.697
- SCN4B log2FoldChange: 2.757
- SCN5A log2FoldChange: 2.371
- SCN9A log2FoldChange: 2.594
- SCUBE1 log2FoldChange: 7.641
- SEMA3F log2FoldChange: 2.777
- SEMA5A log2FoldChange: 2.383
- SERPING1 log2FoldChange: 4.327
- SERPINI1 log2FoldChange: 3.966
- SERTM1 log2FoldChange: 2.165
- SGIP1 log2FoldChange: 2.3607
- SH2D3C log2FoldChange: 5.237
- SHANK1 log2FoldChange: 6.717
- SHF log2FoldChange: 2.222
- SHISA7 log2FoldChange: 4.7
- SLC4A5 log2FoldChange: 2.594
- SLC6A17 log2FoldChange: 2.657
- SLC7A2 log2FoldChange: 3.19
- SLC7A10 log2FoldChange: 6.012
- SLC8A2 log2FoldChange: 4.387
- SLC9A9 log2FoldChange: 2.124
- SLC16A12 log2FoldChange: 2.212
- SLC22A31 log2FoldChange: 5.211
- SLC25A27 log2FoldChange: 5.956
- SLC44A3 log2FoldChange: 2.701
- SLC45A1 log2FoldChange: 2.018
- SLIT2 log2FoldChange: 2.219
- SLITRK3 log2FoldChange: 2.145
- SMPDL3B log2FoldChange: 3.134
- SNCB log2FoldChange: 4.848
- SNX22 log2FoldChange: 2.0694
- SNX32 log2FoldChange: 2.323
- SOBP log2FoldChange: 2.326
- SPANXC log2FoldChange: 2.711
- SPINK2 log2FoldChange: 3.038
- SPNS2 log2FoldChange: 3.326
- SSTR2 log2FoldChange: 2.236
- ST3GAL5 log2FoldChange: 2.386
- ST6GALNAC3 log2FoldChange: 2.853
- STAT4 log2FoldChange: 3.605
- STC1 log2FoldChange: 3.854
- STMN3 log2FoldChange: 2.874
- STUM log2FoldChange: 6.45
- STX1B log2FoldChange: 2.758
- STXBP5L log2FoldChange: 2.17
- SYNPO2 log2FoldChange: 2.428
- SYP log2FoldChange: 4.307
- SYT2 log2FoldChange: 5.115
- SYT5 log2FoldChange: 6.667
- SYT13 log2FoldChange: 2.882
- SYTL3 log2FoldChange: 2.536
- TAGLN3 log2FoldChange: 3.305
- TBC1D8B log2FoldChange: 2.1255
- TCEAL5 log2FoldChange: 4.062
- TCIM log2FoldChange: 3.258
- TEC log2FoldChange: 4.937
- TEKT3 log2FoldChange: 2.698
- TESC log2FoldChange: 5.269
- TEX19 log2FoldChange: 3.325
- THSD7B log2FoldChange: 3.117
- TJP3 log2FoldChange: 5.915
- TLCD3B log2FoldChange: 2.485
- TLR9 log2FoldChange: 2.809
- TLX2 log2FoldChange: 2.462
- TMEM47 log2FoldChange: 2.003
- TMEM74B log2FoldChange: 3.647
- TMEM74 log2FoldChange: 4.084
- TMEM92 log2FoldChange: 3.463
- TMEM139 log2FoldChange: 3.161
- TMEM145 log2FoldChange: 3.464
- TMEM151B log2FoldChange: 3.192
- TMEM156 log2FoldChange: 3.7131
- TMOD1 log2FoldChange: 2.144
- TNFSF18 log2FoldChange: 2.976
- TNNI3 log2FoldChange: 7.061
- TRPC4 log2FoldChange: 3.104
- TTYH1 log2FoldChange: 4.78
- TUBA3C log2FoldChange: 6.251
- TUSC3 log2FoldChange: 3.3304
- UNC5B log2FoldChange: 3.5878
- USH1G log2FoldChange: 7.012
- VAV3 log2FoldChange: 2.016
- VGLL2 log2FoldChange: 2.35
- VTCN1 log2FoldChange: 4.133
- VWA1 log2FoldChange: 2.457
- WNT2B log2FoldChange: 2.031
- WNT10B log2FoldChange: 3.628
- WSCD1 log2FoldChange: 2.865
- XYLT1 log2FoldChange: 5.474
- YPEL4 log2FoldChange: 2.644
- ZCCHC12 log2FoldChange: 2.836
- ZDHHC11B log2FoldChange: 2.194
- ZDHHC22 log2FoldChange: 3.089
- ZFP92 log2FoldChange: 2.85
- ZMYND10 log2FoldChange: 2.335
- ZNF208 log2FoldChange: 3.37
- Direction (gene ALOX15B): Up
- Direction (gene AMBN): Up
- Direction (gene APELA): Up
- Direction (gene ATP2B3): Up
- Direction (gene B3GALT5): Up
- Direction (gene BCL11B): Up
- Direction (gene BRS3): Up
- Direction (gene CA4): Up
- Direction (gene CA7): Up
- Direction (gene CAPNS2): Up
- Direction (gene CCN5): Up
- Direction (gene CD1D): Up
- Direction (gene CDC20B): Up
- Direction (gene CELF4): Up
- Direction (gene CES1): Up
- Direction (gene CFAP52): Up
- Direction (gene CHRNA3): Up
- Direction (gene CRB1): Up
- Direction (gene CSAG1): Up
- Direction (gene CSDC2): Up
- Direction (gene CUX2): Up
- Direction (gene CXorf51A): Up
- Direction (gene DES): Up
- Direction (gene DGKK): Up
- Direction (gene EBF2): Up
- Direction (gene EREG): Up
- Direction (gene FAM9C): Up
- Direction (gene FAM166A): Up
- Direction (gene FER1L5): Up
- Direction (gene FGD3): Up
- Direction (gene FRG2): Up
- Direction (gene FRMD7): Up
- Direction (gene GAS7): Up
- Direction (gene GMNC): Up
- Direction (gene GOLGA8F): Up
- Direction (gene GREM2): Up
- Direction (gene GUCY2F): Up
- Direction (gene HOXC13): Up
- Direction (gene IBSP): Up
- Direction (gene IRAG1): Up
- Direction (gene IRF6): Up
- Direction (gene KANK3): Up
- Direction (gene KCNA1): Up
- Direction (gene KCNH6): Up
- Direction (gene KCNK5): Up
- Direction (gene KCNK15): Up
- Direction (gene KCNN2): Up
- Direction (gene KCNQ1): Up
- Direction (gene LHFPL1): Up
- Direction (gene LHX5): Up
- Direction (gene LOC102723623): Up
- Direction (gene LRRC15): Up
- Direction (gene MAGEA2): Up
- Direction (gene MAGEA2B): Up
- Direction (gene MAGEA6): Up
- Direction (gene MAPK15): Up
- Direction (gene ME1): Up
- Direction (gene MEIOSIN): Up
- Direction (gene MMEL1): Up
- Direction (gene MMP12): Up
- Direction (gene MYL2): Up
- Direction (gene NOS3): Up
- Direction (gene NTRK1): Up
- Direction (gene PAGE4): Up
- Direction (gene PAX2): Up
- Direction (gene PCDHA1): Up
- Direction (gene PITX3): Up
- Direction (gene PLAC1): Up
- Direction (gene PLK5): Up
- Direction (gene PLXDC1): Up
- Direction (gene PNLIPRP3): Up
- Direction (gene POU3F4): Up
- Direction (gene PSG6): Up
- Direction (gene PTPRN): Up
- Direction (gene RPRML): Up
- Direction (gene RSPO1): Up
- Direction (gene SCN4A): Up
- Direction (gene SCRT1): Up
- Direction (gene SH2D3A): Up
- Direction (gene SHH): Up
- Direction (gene SIDT1): Up
- Direction (gene SLC4A9): Up
- Direction (gene SLC11A1): Up
- Direction (gene SLC18A1): Up
- Direction (gene SLC19A3): Up
- Direction (gene SLC35F3): Up
- Direction (gene SLC36A2): Up
- Direction (gene STMN4): Up
- Direction (gene STRC): Up
- Direction (gene SYT1): Up
- Direction (gene TAC3): Up
- Direction (gene TMEM196): Up
- Direction (gene TNIP3): Up
- Direction (gene TSPAN18): Up
- Direction (gene TTC9B): Up
- Direction (gene UGT3A1): Up
- Direction (gene UNC5A): Up
- Direction (gene VWA3B): Up
- Direction (gene ZBBX): Up
- Direction (gene ZNF479): Up
